Columns and labels:
[1] = target: T1, M-Fae (MtFae1a produced in M. thermophila) (Thermothelomyces thermophilus, UniProt G2QND5); experiment: continuous absorbance assay at […] nm, non-linear regression; type: biochemical; settings: substrate inhibition constant; free enzyme, 100 mM sodium phosphate pH 7.0, 35 °C; 5% DMSO
T1 construct: gene Fae1a; mature (signal peptide, first 18 residues, removed); homologous over-production in M. thermophila C1; no tag stated; N-glycosylated at Asn117 and Asn179; calculated MW 29506 Da, 31 kDa on SDS-PAGE; homodimer only predicted
T1 sequence (G2QND5 19-291): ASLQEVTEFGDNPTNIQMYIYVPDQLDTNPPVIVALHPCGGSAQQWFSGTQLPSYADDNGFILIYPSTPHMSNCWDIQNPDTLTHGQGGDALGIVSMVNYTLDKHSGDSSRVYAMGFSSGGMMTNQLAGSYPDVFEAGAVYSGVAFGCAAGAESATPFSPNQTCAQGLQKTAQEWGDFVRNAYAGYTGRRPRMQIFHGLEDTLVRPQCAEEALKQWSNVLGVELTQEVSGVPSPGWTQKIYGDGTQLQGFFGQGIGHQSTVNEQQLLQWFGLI

[2] = target: T2, P-Fae (MtFae1a produced in P. pastoris) (Thermothelomyces thermophilus, UniProt G2QND5); experiment: as above; type: biochemical; settings: substrate inhibition constant; free enzyme, 100 mM sodium phosphate pH 7.0, 35 °C; 5% DMSO
T2 construct: gene Fae1a; mature (signal peptide, first 18 residues, removed); secreted from Pichia pastoris GS115 (vector pPNic706); no tag stated; N-glycosylated at Asn117 and Asn179 with larger glycans; calculated MW 29506 Da, 33 kDa on SDS-PAGE; homodimer only predicted
T2 sequence (G2QND5 19-291): as above

COC(=O)/C=C/c1ccc(O)cc1 [MpCA, methyl p-coumarate]
Ksi [1]: 1.46 ± 0.29 mM
Ksi [2]: 1.84 ± 0.28 mM

— publication PMC6691016, “Glycosylation influences activity, stability and immobilization of the feruloyl esterase 1a from Myceliophthora thermophila” (AMB Express, 2019)
